Test results from patent US6964983B2, “Compounds that modulate PPAR activity and methods for their preparation” (Warner-Lambert Company, LLC, priority 2002, dated 2005).

What was measured:
[1] = molecular target: T1, hPPARα (Homo sapiens, UniProt Q07869); assay: Transient transfection assay in HepG2 cells, Gal4-hPPARα chimeric receptor, luciferase reporter; assay type: cell-based; details: Hep G2-hAlpha EC50, 24 hours incubation; read-out: EC50α nM (Group)
T1 sequence (Q07869 200-468 limits assumed): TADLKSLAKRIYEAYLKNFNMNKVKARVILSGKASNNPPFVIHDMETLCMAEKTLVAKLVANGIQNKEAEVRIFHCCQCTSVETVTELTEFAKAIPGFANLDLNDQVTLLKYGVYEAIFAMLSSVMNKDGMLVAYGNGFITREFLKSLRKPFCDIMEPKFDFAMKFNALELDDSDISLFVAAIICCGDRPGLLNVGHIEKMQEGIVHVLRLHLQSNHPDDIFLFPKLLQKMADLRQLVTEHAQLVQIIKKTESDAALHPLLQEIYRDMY
Procedure: (§1) 1. Test A. Transient Transfections Assay using the HepG2 Hepatoma Cell Line.
(§2) HepG2 cells were transiently transfected with an expression plasmids encoding hPPARα, hPPARβ or mPPARγ chimeric receptors and a reporter containing the yeast upstream activating sequence (UAS) upstream of the viral E1B promoter controlling a luciferase reporter gene. In addition, the plasmid pRSVβ-gal was used to control for transfection efficiency. HepG2 cells were grown in DMEM supplemented with 10% FBS and 1 μM non-essential amino acid. On the first day, cells were split into 100 mm dishes at 2.5×10^6/dish and incubated overnight at 37° C./5% CO2. On the second day the cells were transiently transfected with plasmid DNA encoding a chimeric receptor, the luciferase reporter gene; and β-gal. For each 100 mm dish, 15 μg of lucifease reporter (PG5E1b) DNA, 15 μg of Gal4-PPAR chimeric receptor DNA, and 1.5 μg of β-gal plasmid DNA were mixed with 1.4 ml of opti-MEM in the tube. 28 μl of LipoFectamine-2000 reagent was added to 1.4 ml of opti-MEM in the tube, and incubate for 5 min at RT. The diluted Lipofectamine-2000 reagent was combined with the DNA mixture, and incubate for 20 min at RT. After fresh medium was added to each 100 mm dish of cells, 2.8 ml of Lipofectamine2000-DNA mixture was added dropwise to the 100 mm dish containing 14 ml of medium, and incubate 37° C. overnight. On day three cells were trypsinized off the 100 mm dishes and re-plated on 96 well plates. Cells were plated at 2.5×10^4 cells per well in 150 μl of media and 50 μl of compound diluted by media was added. The test compound added were in the range from 50 μM to 50 pM. After addition of compounds, the plates were incubated at 37° C. for 24 hours. Subsequently cells were washed with once with 100 μl of PBS, lysed, and processed for measuring luciferase and β-gal activity using Dual-Light luciferase kit from Tropix ®, according to the manufacturer's recommendations, on an EG&G Bethold MicroLumat LB96P luminometer. EC50 values were obtained using the GraphPad Prism™ program.

[2] = molecular target: T2, hPPARβ (Homo sapiens, UniProt Q03181); assay: Transient transfection assay in HepG2 cells, Gal4-hPPARβ chimeric receptor, luciferase reporter; assay type: cell-based; details: Hep G2-hBeta EC50, 24 hours incubation; read-out: EC50β nM (Group)
T2 sequence (Q03181 171-441 limits assumed): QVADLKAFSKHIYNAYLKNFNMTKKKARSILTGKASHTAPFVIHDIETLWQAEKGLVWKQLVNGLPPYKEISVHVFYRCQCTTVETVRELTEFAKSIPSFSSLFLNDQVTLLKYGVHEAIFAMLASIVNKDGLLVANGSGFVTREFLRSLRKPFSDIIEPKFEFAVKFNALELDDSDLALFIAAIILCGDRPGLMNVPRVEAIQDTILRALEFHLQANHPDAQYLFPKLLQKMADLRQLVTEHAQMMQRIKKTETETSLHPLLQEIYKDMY
Procedure: as §1, §2

Row | EC50 [1] | EC50 [2] | melting point | Compound
1 | < 300 nM | < 300 nM |  | COc1cc(OCC(=O)O)c(C)cc1SCc1ccc(-c2ccc(Cl)cc2Cl)cc1 [Example 7, [4-(2′,4′-Dichloro-biphenyl-4-ylmethylsulfanyl)-5-methoxy-2-methyl-phenoxy]-acetic acid]
2 | 300 to 500 nM | < 300 nM |  | COc1cc(OCC(=O)O)c(C)cc1SCc1ccc(-c2ccc(F)cc2)cc1 [Example 10, [4-(4′-Fluoro-biphenyl-4-ylmethylsulfanyl)-5-methoxy-2-methyl-phenoxy]-acetic acid]
3 | 500 to 1000 nM | < 300 nM |  | COc1cc(OCC(=O)O)c(C)cc1SCc1ccc(-c2cccc(OC(F)(F)F)c2)cc1 [Example 11, [5-Methoxy-2-methyl-4-(3′-trifluoromethoxy-biphenyl-4-ylmethylsulfanyl)-phenoxy]-acetic acid]
4 | 2000 to 5000 nM | 1000 to 2000 nM |  | Cc1cc(SCc2ccc3c(c2)Cc2ccccc2-3)ccc1OCC(=O)O [Example 17]
5 | < 300 nM | < 300 nM |  | COc1cc(OCC(=O)O)ccc1SCc1ccc(-c2ccc(C(F)(F)F)cc2)cc1 [Example 21, [3-Methoxy-4-(4′-trifluoromethyl-biphenyl-4-ylmethylsulfanyl)-phenoxy]-acetic acid]
6 | 1000 to 2000 nM | 1000 to 2000 nM |  | Cc1cc(SCc2ccc(-c3ccc(C(F)(F)F)cn3)cc2)ccc1OCC(=O)O [Example 30, {2-Methyl-4-[4-(5-trifluoromethyl-pyridin-2-yl)-benzylsulfanyl]-phenoxy}-acetic acid]
7 | 2000 to 5000 nM | < 300 nM |  | COc1cc(OCC(=O)O)c(C)cc1SCc1cc(-c2ccc(Cl)cc2)on1 [Example 41, {4-[5-(4-Chloro-phenyl)-isoxazol-3-ylmethylsulfanyl]-5-methoxy-2-methyl-phenoxy}-acetic acid]
8 | 2000 to 5000 nM |  |  | Cc1cc(SCc2cc(-c3ccc(C(F)(F)F)cc3)on2)ccc1OCC(=O)O [Example 42, {2-Methyl-4-[5-(4-trifluoromethyl-phenyl)-isoxazol-3-ylmethylsulfanyl]-phenoxy}-acetic acid]
9 | 500 to 1000 nM | < 300 nM |  | COc1cc(OCC(=O)O)c(C)cc1SCc1cc(-c2ccc(C(F)(F)F)cc2)on1 [Example 43, {5-Methoxy-2-methyl-4-[5-(4-trifluoromethyl-phenyl)-isoxazol-3-ylmethylsulfanyl]-phenoxy}-acetic acid]
10 | > 5000 nM | 500 to 1000 nM |  | O=C(O)COc1ccc(SCc2cc(-c3ccc(C(F)(F)F)cc3)on2)c2c1CCC2 [Example 44, {7-[5-(4-Trifluoromethyl-phenyl)-isoxazol-3-ylmethylsulfanyl]-indan-4-yloxy}-acetic acid]
11 | < 300 nM | < 300 nM |  | COc1cc(OCC(=O)O)c(C)cc1SCc1cc(-c2ccc(C(F)(F)F)cc2)no1 [Example 46, {5-Methoxy-2-methyl-4-[3-(4-trifluoromethyl-phenyl)-isoxazol-5-ylmethylsulfanyl]-phenoxy}-acetic acid]
12 | 2000 to 5000 nM | < 300 nM |  | O=C(O)COc1ccc(SCc2cccc(-c3ccc(C(F)(F)F)cc3)c2)c2c1CCC2 [Example 48, [7-(4′-Trifluoromethyl-biphenyl-3-ylmethylsulfanyl)-indan-4-yloxy]-acetic acid]
13 |  | 500 to 1000 nM | 140 to 142 °C | O=C(O)COc1ccc(SCc2ccc(OCc3ccc(OC(F)(F)F)cc3)cc2)c2c1CCC2 [Example 75, {7-[4-(4-Trifluoromethoxy-benzyloxy)-benzylsulfanyl]-indan-4-yloxy}-acetic acid]
14 |  | 1000 to 2000 nM | 125 to 127 °C | O=C(O)COc1ccc(SCc2ccc(OCc3ccc(F)cc3C(F)(F)F)cc2)c2c1CCC2 [Example 76, {7-[4-(4-Fluoro-2-trifluoromethyl-benzyloxy)-benzylsulfanyl]-indan-4-yloxy}-acetic acid]
15 |  | 300 to 500 nM | 134 to 135 °C | O=C(O)COc1ccc(SCc2ccc(OCc3cc(Cl)cc(Cl)c3)cc2)c2c1CCC2 [Example 77, {7-[4-(3,5-Dichloro-benzyloxy)-benzylsulfanyl]-indan-4-yloxy}-acetic acid]
16 |  | 300 to 500 nM | 150 to 151 °C | COc1ccc(CSc2ccc(OCC(=O)O)c3c2CCC3)cc1OCc1ccc(C(F)(F)F)cc1 [Example 78, {7-[4-Methoxy-3-(4-trifluoromethyl-benzyloxy)-benzylsulfanyl]-indan-4-yloxy}-acetic acid]
17 |  | 1000 to 2000 nM | 121 to 122 °C | O=C(O)COc1ccc(SCc2cccc(OCc3ccc(Cl)c(C(F)(F)F)c3)c2)c2c1CCC2 [Example 80, {7-[3-(4-Chloro-3-trifluoromethyl-benzyloxy)-benzylsulfanyl]-indan-4-yxoly}-acetic acid]
18 |  | 1000 to 2000 nM | 98 to 100 °C | O=C(O)COc1ccc(SCc2ccc(OCc3cc(Cl)ccc3Cl)cc2)c2c1CCCO2 [Example 85, {8-[4-(2,5-Dichloro-benzyloxy)-benzylsulfanyl]-chroman-5-yloxy}-acetic acid]
19 |  | 2000 to 5000 nM | 161 to 162 °C | O=C(O)COc1ccc(SCc2cc(-c3ccccc3Cl)on2)c2c1CCC2 [Example 87, {7-[5-(2-Chloro-phenyl)-isoxazol-3-ylmethylsulfanyl]-indan-4-yloxy}-acetic acid]
20 |  | > 5000 nM | 151 to 152 °C | Cc1onc(-c2c(Cl)cccc2Cl)c1CSc1ccc(OCC(=O)O)c2c1CCC2 [Example 88, {7-[3-(2,6-Dichloro-phenyl)-5-methyl-isoxazol-4-ylmethylsulfanyl]-indan-4-yloxy}-acetic acid]
21 |  | 1000 to 2000 nM | 166 to 168 °C | O=C(O)COc1ccc(SCc2cc(-c3ccc(C(F)(F)F)cc3)no2)c2c1CCC2 [Example 89, {7-[3-(4-Trifluoromethyl-phenyl)-isoxazol-5-ylmethylsulfanyl]-indan-4-yloxy}-acetic acid]
22 |  | 500 to 1000 nM | 170 to 172 °C | O=C(O)COc1ccc(SCCc2ccc(-c3ccc(C(F)(F)F)cc3)cc2)c2c1CCC2 [Example 90, {7-[2-(4′-Trifluoromethyl-biphenyl-4-yl)-ethylsulfanyl]-indan-4-yloxy}-acetic acid]
23 |  | 2000 to 5000 nM | 188 to 190 °C | O=C(O)COc1ccc(CCc2ccc(-c3ccc(C(F)(F)F)cc3)cc2)c2c1CCC2 [Example 91, {7-[2-(4′-Trifluoromethyl-biphenyl-4-yl)-ethyl]-indan-4-yloxy}-acetic acid]
24 |  | 500 to 1000 nM | 170 to 172 °C | O=C(O)COc1ccc(SCc2ccc(-c3ccc(C(F)(F)F)cc3)cc2)c2c1CCCO2 [Example 93, [8-(4′-Trifluoromethyl-biphenyl-4-ylmethylsulfanyl)-chroman-5-yloxy]-acetic acid]
25 |  | 2000 to 5000 nM | 158 to 160 °C | O=C(O)COc1ccc(SCc2cc(-c3ccc(Cl)cc3)no2)c2c1CCC2 [Example 98, {7-[3-(4-Chloro-phenyl)-isoxazol-5-ylmethylsulfanyl]-indan-4-yloxy}-acetic acid]
26 |  | 300 to 500 nM | 180 to 182 °C | Cc1cc(SCc2cc(-c3ccc(C(F)(F)F)cc3)on2)c(Cl)cc1OCC(=O)O [Example 99, {5-Chloro-2-methyl-4-[5-(4-trifluoromethyl-phenyl)-isoxazol-3-ylmethylsulfanyl]-phenoxy}-acetic acid]
27 |  | 500 to 1000 nM | 155 to 157 °C | CCCCc1cc(SCc2ccc(-c3ccc(C(F)(F)F)cc3)cc2)ccc1OCC(=O)O [Example 100, 2-[2-butyl-4-({4-[4-(trifluoromethyl)phenyl]phenyl}methylthio)phenoxy]acetic acid]
